Source: US20250346601A1, “HETEROCYCLIC COMPOUNDS FOR THE PREVENTION AND THERAPY OF CIRCADIAN RHYTHM DISORDERS” (UNIVERZITA PALACKEHO V OLOMOUCI, priority 2022, published 2025)

Columns and labels:
[1] = test system: U2OS line transduced with the Bmal 1-Luc reporter; assay: Period of the circadian rhythm in U2OS cells with Bmal1-Luc reporter (luminescence, cosinor analysis); format: cell-based, Human; conditions: U2OS, DMSO control = 1.00
Protocol: Human osteosarcoma U2OS cells were grown in standard DMEM medium with 10% fetal bovine serum. U2OS cells were transduced with lentiviral particles containing a Bmall-Luc fusion reporter and selected under Blasticidin. The cell line was clonally expanded and a single monoclonal cell line was used for further experiments. Cells were cultured in a 384-well plate in growth medium to 90+% confluence. Test compound or vehicle (DMSO) was applied to recording medium with 100 U/ml penicillin, 100 ug/ml streptomycin, 1x GlutaMAX, 10% fetal bovine serum, and 0.1 mM Luciferin-EF. Luminescence was recorded every hour for the next 144 hours. Circadian rhythm analysis was performed using cosinor analysis.
The length of the period was expressed relative to the period of cells affected only by DMSO vehicle (their period is therefore 1.00). […] The overall effect on circadian oscillations unequivocally proves that the compounds of formula I can be also used to temporally modulate the concentration and activity of not only BMAL1, but also other components of the oscillator including the critical components PER2, CRY and CLOCK in time, as these are an essential part of the mechanism generating the rhythmic expression of the luminescent reporter used. The concentration and level of other proteins, whose rhythmic expression is controlled by an oscillator in the brain and peripheral tissues (so-called clock-controlled genes), are also necessarily affected. The influence of the compounds of formula I on the activity of oscillator components and subordinate genes also means influencing the physiological processes of the cell controlled by these genes and proteins. N^6-furfuryladenine was used as a reference compound. […] The ability to shift the phase of the circadian cycle can be seen in FIG. 2.

[2] = test system: NIH3T3 line transfected with the Per2-Luc reporter; assay: Period of the circadian rhythm in NIH3T3 fibroblasts with Per2-Luc reporter (luminescence, cosinor analysis); format: cell-based, mouse; conditions: NIH3T3, DMSO control = 1.00
Protocol: NIH3T3 mouse embryonic fibroblasts were grown in standard DMEM with 10% fetal bovine serum. NIH3T3 cells were transfected with 1 μg of Per2-Luc reporter using GeneJuice and selected under hygromycin. The cell line was clonally expanded and a single monoclonal cell line was used for further experiments. Cells were cultured in a 96-well plate in growth medium to 90+% confluence. Test compound or vehicle (DMSO) was applied to recording medium with 100 U/ml penicillin, 100 μg/ml streptomycin, 1x GlutaMAX, 10% fetal calf serum and 0.1 mM Luciferin-EF (Promega Madison, WI, USA). Luminescence was recorded every hour for the next 144 hours. Circadian rhythm analysis was performed using cosinor analysis. Period length was expressed relative to the period of cells affected only by DMSO vehicle (their period length is therefore 1.00).

SMILES | Period length ± standard error of the mean (expressed relative to the control) at the indicated concentration ([2]; 50 μM) | Period length ± standard error of the mean (expressed relative to control) at the indicated concentration ([1]; 10 μM) | Period length ± standard error of the mean (expressed relative to the control) at the indicated concentration ([2]; 10 μM) | further results
CCOCn1cnc2c(NCc3ccco3)ncnc21 [9-(ethoxymethyl)-N-(furan-2-ylmethyl)-9H-purin-6-amine, reference compound] | 50 μM: 1 ± 0.03 | – | – | Period length ± standard error of the mean (expressed relative to control) at the indicated concentration ([1]; 50 μM): 50 μM: 1.01 ± 0.01
CC(C)(C)OCCn1cnc2c(NCc3ccco3)ncnc21 [9-[2-(tert-butoxy)ethyl]-N-(furan-2-ylmethyl)-9H-purin-6-amine, reference compound] | 50 μM: 0.9 ± 0.06 | – | – | Period length ± standard error of the mean (expressed relative to control) at the indicated concentration ([1]; 50 μM): 50 μM: 1 ± 0.01
c1ccc(Cn2cnc3c(NCc4ccco4)ncnc32)cc1 [9-benzyl-N-(furan-2-ylmethyl)-9H-purin-6-amine, reference compound] | – | 10 μM: 1 ± 0.02 | 10 μM: 1 ± 0.02 | –
c1coc(CNc2ncnc3c2ncn3C2CCCC2)c1 [Compound 1] | 1.54 ± 0.01 | 10 μM: 1.19 ± 0.02 | 1.17 ± 0.01 | –
Clc1nc(NCc2ccco2)c2ncn(C3CCCC3)c2n1 [Compound 6] | – | – | 10 μM: 1.27 ± 0.01 | Period length ± standard error of the mean (expressed relative to control) at the indicated concentration ([1]; 5 μM): 5 μM: 1.23 ± 0.03
Clc1nc(NCc2ccco2)c2ncn(C3CCOCC3)c2n1 [Compound 10] | – | 10 μM: 1.09 ± 0.01 | 10 μM: 1.14 ± 0.01 | –
CN(C)c1nc(NCc2ccco2)c2ncn(C3CCCC3)c2n1 [Compound 15, 9-cyclopentyl-N^6-(furan-2-ylmethyl)-N^2,N^2-dimethyl-9H-purine-2,6-diamine] | 1.56 ± 0.07 | – | – | Period length ± standard error of the mean (expressed relative to control) at the indicated concentration ([1]; 1 μM): 1.05 ± 0.01; Period length ± standard error of the mean (expressed relative to control) at the indicated concentration ([1]; 4 μM): 1.15 ± 0.01; Period length ± standard error of the mean (expressed relative to the control) at the indicated concentration ([2]; 0.83 μM): 1.08 ± 0.05
CN(CCN)c1nc(NCc2ccco2)c2ncn(C3CCCC3)c2n1 [Compound 16] | – | 1.26 ± 0.07 | 2.02 ± 0.06 | Period length ± standard error of the mean (expressed relative to control) at the indicated concentration ([1]; 20 μM): 1.95 ± 0.14; Period length ± standard error of the mean (expressed relative to the control) at the indicated concentration ([2]; 0.83 μM): 1.05 ± 0.01
CN(C)CCNc1nc(NCc2ccco2)c2ncn(C3CCCC3)c2n1 [Compound 17] | 2.17 ± 0.1 | 10 μM: 1.48 ± 0.28 | 1.71 ± 0.04 | –
NCCNc1nc(NCc2ccco2)c2ncn(C3CCCC3)c2n1 [Compound 18] | 2.19 ± 0.35 | – | 1.19 ± 0 | Period length ± standard error of the mean (expressed relative to control) at the indicated concentration ([1]; 1 μM): 1 μM: 1.16 ± 0.03
c1coc(CNc2nc(N3CCOCC3)nc3c2ncn3C2CCCC2)c1 [Compound 20] | 1.55 ± 0.03 | – | – | Period length ± standard error of the mean (expressed relative to control) at the indicated concentration ([1]; 1 μM): 1.09 ± 0.01; Period length ± standard error of the mean (expressed relative to control) at the indicated concentration ([1]; 4 μM): 1.67 ± 0.33; Period length ± standard error of the mean (expressed relative to the control) at the indicated concentration ([2]; 0.83 μM): 1.04 ± 0.01
CNc1nc(NCc2ccco2)c2ncn(C3CCCO3)c2n1 (centres unmarked) [Compound 22] | 50 μM: 1.22 ± 0.02 | 10 μM: 1.06 ± 0 | – | –
CN(C)c1nc(NCc2ccco2)c2ncn(C3CCCO3)c2n1 (centres unmarked) [Compound 23] | 1.36 ± 0.04 | 10 μM: 1.08 ± 0.01 | 1.07 ± 0.01 | –
Cc1ccc(CNc2nc(N(C)C)nc3c2ncn3C2CCCO2)o1 (centres unmarked) [Compound 24] | 50 μM: 1.24 ± 0.07 | 1.03 ± 0 | – | Period length ± standard error of the mean (expressed relative to control) at the indicated concentration ([1]; 20 μM): 1.09 ± 0.01
CNc1nc(NCc2ccco2)c2ncn(C3CCCCO3)c2n1 (centres unmarked) [Compound 33] | 50 μM: 1.18 ± 0.02 | – | – | Period length ± standard error of the mean (expressed relative to control) at the indicated concentration ([1]; 5 μM): 5 μM: 1.04 ± 0
CN(C)c1nc(NCc2ccco2)c2ncn(C3CCCCO3)c2n1 (centres unmarked) [Compound 34] | 50 μM: 2.3 ± 0.03 | 1.12 ± 0.01 | – | Period length ± standard error of the mean (expressed relative to control) at the indicated concentration ([1]; 20 μM): 1.25 ± 0.03; Period length ± standard error of the mean (expressed relative to control) at the indicated concentration ([1]; 50 μM): 50 μM: 1.73 ± 0.6
CCCNc1nc(NCc2ccco2)c2ncn(C3CCCCO3)c2n1 (centres unmarked) [Compound 35] | 50 μM: 1.38 ± 0.09 | 10 μM: 1.05 ± 0.01 | – | –
c1coc(CNc2nc(NCc3ccco3)c3ncn(C4CCCCO4)c3n2)c1 (centres unmarked) [Compound 38] | 50 μM: 1.22 ± 0.06 | 10 μM: 1.1 ± 0.02 | – | –
CN(C)CCNc1nc(NCc2ccco2)c2ncn(C3CCCCO3)c2n1 (centres unmarked) [Compound 44] | 50 μM: 1.72 ± 0.04 | – | – | Period length ± standard error of the mean (expressed relative to control) at the indicated concentration ([1]; 1 μM): 1.05 ± 0.01; Period length ± standard error of the mean (expressed relative to control) at the indicated concentration ([1]; 5 μM): 1.28 ± 0.02
OCCNc1nc(NCc2ccco2)c2ncn(C3CCCCO3)c2n1 (centres unmarked) [Compound 45, 2-({6-[(furan-2-ylmethyl)amino]-9-(tetrahydro-2H-pyran-2-yl)-9H-purin-2-yl}amino)ethan-1-ol] | 50 μM: 1.32 ± 0.01 | – | – | Period length ± standard error of the mean (expressed relative to control) at the indicated concentration ([1]; 20 μM): 20 μM: 1.04 ± 0.01
COCCCNc1nc(NCc2ccco2)c2ncn(C3CCCCO3)c2n1 (centres unmarked) [Compound 46] | 50 μM: 1.27 ± 0.04 | – | – | Period length ± standard error of the mean (expressed relative to control) at the indicated concentration ([1]; 20 μM): 20 μM: 1.05 ± 0.01
CNc1nc(NCc2ccc(C)o2)c2ncn(C3CCCCO3)c2n1 (centres unmarked) [Compound 50] | 50 μM: 1.6 ± 0.02 | 1.11 ± 0.01 | – | Period length ± standard error of the mean (expressed relative to control) at the indicated concentration ([1]; 20 μM): 1.14 ± 0.02
CNc1nc(NCc2ccco2)c2ncn(C3CCCCCO3)c2n1 (centres unmarked) [Compound 60] | 50 μM: 1.42 ± 0.04 | – | – | Period length ± standard error of the mean (expressed relative to control) at the indicated concentration ([1]; 5 μM): 1.04 ± 0; Period length ± standard error of the mean (expressed relative to control) at the indicated concentration ([1]; 20 μM): 1.15 ± 0.01
CC(C)OCCn1cnc2c(NCc3ccco3)ncnc21 [N-(furan-2-ylmethyl)-9-(2-isopropoxyethyl)-9H-purin-6-amine, reference compound] | 50 μM: 0.95 ± 0.02 | – | – | Period length ± standard error of the mean (expressed relative to control) at the indicated concentration ([1]; 50 μM): 50 μM: 1.01 ± 0.01
COCCCn1cnc2c(NCc3ccco3)ncnc21 [N-(furan-2-ylmethyl)-9-(3-methoxypropyl)-9H-purin-6-amine, reference compound] | 50 μM: 0.93 ± 0 | – | – | Period length ± standard error of the mean (expressed relative to control) at the indicated concentration ([1]; 50 μM): 50 μM: 0.99 ± 0.01
COCCCCn1cnc2c(NCc3ccco3)ncnc21 [N-(furan-2-ylmethyl)-9-(4-methoxybutyl)-9H-purin-6-amine, reference compound] | 50 μM: 0.97 ± 0.03 | – | – | Period length ± standard error of the mean (expressed relative to control) at the indicated concentration ([1]; 50 μM): 50 μM: 1 ± 0.01
